In ChEMBL document CHEMBL3507680, “University of Dundee, Gates Library screen for HepG2 cell viability”:

Assay: Human HepG2 cell viability assay in 384 well format
Assay type: toxicity, cell-based
Set-up: dose 125 nL, time 70.5 hour; concentration not given beside the values
Conditions: HepG2 cells, read-out: Inhibition

Row | Compound | cytotoxicity at 70.5 h
1 | CC(C)COCc1cncc2c1CCN(Cc1cnn(C)c1)C2 | -13.8%
2 | c1cnn(-c2ccc(CN3CCOC(Cn4cncn4)C3)cc2)c1 (centres undefined) | 18.2%
3 | O=C(Cc1ccccn1)N1CCn2cc(Cn3cncn3)nc2C1 | 0.952%
4 | COCCNC(=O)[C@H]1C[C@@H]2CCN(Cc3nccs3)C[C@H]2O1 | -13.5%
5 | O=C(CCc1ccco1)Nc1ccc(Br)cn1 | 28.6%
6 | C=C(C)COc1cccc(CNC(CC(C)C)c2ncnn2C)c1 (centres undefined) | -3.16%
7 | COCC(=O)N1CCCC(C(=O)N(C)CCCc2cnn(C)c2)C1 (centres undefined) | 1%
8 | O=C1CO[C@@H]2CN(Cc3cccs3)C[C@H]2N1Cc1ccncc1 | 7.47%
9 | CNC(=O)C1CNCCN1C(=O)c1ccc(C(F)(F)F)nc1C (centres undefined) | -5.69%
10 | O=C(CCC1CCN(C(=O)c2csnn2)CC1)NCc1cccc(Cl)c1 | 7.85%
11 | CN(Cc1nc(C(C)(C)C)no1)C1CCS(=O)(=O)C1 (centres undefined) | 6.01%
12 | CCOc1cc(CNC(=O)C(C#N)c2nc(C)cs2)ccc1OC(F)F (centres undefined) | -0.465%
13 | CCCS(=O)(=O)N1CCC(Oc2ccc(C#N)cc2)CC1 | 4.2%
14 | COCCN(C)C[C@@H]1CN(c2nc(C)cc(C)n2)C[C@@H]1CO | 1.4%
15 | CCn1nccc1C(=O)NC(Cn1cccn1)C(C)(C)C (centres undefined) | 2.9%
16 | CCN(C(=O)CN1CCC(c2cc3ccccc3[nH]2)CC1)C1CC1 | 4.18%
17 | Cc1occc1C(=O)N1CCC2(CC1)CN(c1ccccn1)CCO2 | -5.88%
18 | Cc1cccc(C2CCN(S(=O)(=O)c3cn(C)cn3)CC2)n1 | -8.21%
19 | CCC(CC)C(=O)NCCc1ccn(-c2ccccc2)n1 | -0.813%
20 | CC(C)n1cc(N2CC(C(=O)N3CCN(C)CC3)CC2=O)cn1 (centres undefined) | -10.8%
21 | CCn1ccnc1CNCc1ccc(C)cc1OC(C)(C)C | -11%
22 | O=C(CNc1cc(F)ccc1OC(F)F)NCC(F)(F)F | 2.53%
23 | Cc1nc(CCC(=O)NC2CCC2)cc(C2CCNCC2)n1 | 21.9%

Row | Compound | cytotoxicity at 70.5 h
24 | CC(CN1CCOCC1)NC(=O)N(C)Cc1ccc(Cl)s1 (centres undefined) | -2.73%
25 | O=C(c1cn(-c2ccccc2Cl)nn1)N1CCSCC1 | 15.4%
26 | CC1CCc2nn(CCNC(=O)c3cccs3)c(=O)cc2C1 (centres undefined) | 25.2%
27 | CC(C)N1CCC(NCc2cccnc2N(C)C)CC1 | 2.11%
28 | CC(C)(C)c1ncc(C(=O)NCCNc2ncccn2)s1 | -4.56%
29 | COC1CN(C(=O)CC(C)C)CCC(=O)N(C)c2ccccc21 (centres undefined) | -7.01%
30 | CC(C)CC(=O)N1CCCC1c1cc(CO)[nH]n1 (centres undefined) | -4.42%
31 | CN(Cc1ccccc1)CC(O)Cn1cnc2ccc(Br)cc2c1=O (centres undefined) | -5.18%
32 | COCCC1CCN(CC(C)n2cnc3ccccc32)CC1 (centres undefined) | -17.3%
33 | Cc1nc(C2CCCN(C(=O)c3ccco3)C2)no1 (centres undefined) | 24%
34 | CN1CCCC(N(C)S(=O)(=O)c2cccc3ncccc23)C1 (centres undefined) | -1.85%
35 | CCS(=O)(=O)NCCNCc1ccc(Cl)c2cccnc12 | -0.568%
36 | Cc1occc1C(=O)N1CCC2(CCCN(c3ncc(F)cn3)C2)C1 (centres undefined) | -1.51%
37 | Cc1cc(C)n(CCCN(C)c2cc(C3CC3)ncn2)n1 | -7.51%
38 | CC(C)CNC(=O)c1cccc(CN2CCc3c(ncn3C)C2)c1 | -13.6%
39 | Cc1ccc(-c2nc(C(=O)NCC3CCOC3)cs2)cc1 (centres undefined) | -15.2%
40 | Cc1n[nH]c(C)c1NC(=O)CN1CCN(c2nccs2)C(C)C1 (centres undefined) | -1.01%
41 | Cc1cnc(N2CC[C@@H]3CN(Cc4ccncc4)CCO[C@@H]3C2)nc1 | 8.21%
42 | c1ccc(CN2CCCn3nnc(Cn4cccc4)c3C2)nc1 | -7.02%
43 | Cc1cc(C(=O)N2C[C@H](CO)C[C@H](CN3CCOCC3)C2)cnc1C | 14.5%
44 | O=C(N[C@@H]1CN(Cc2ccc3cc[nH]c3c2)C[C@H]1O)c1cnccn1 | -5.2%
45 | O=C(NCCNc1ncccn1)C1CCN(CC(F)(F)F)CC1 | -3.78%
46 | Cc1cc(C(=O)Nc2ccc(OCC3CCOCC3)cc2)[nH]n1 | 1.95%

Row | Compound | cytotoxicity at 70.5 h
47 | COc1c(CNC2CCOc3ccccc32)c(C)nn1C (centres undefined) | -4.19%
48 | c1cc(C2CC2)n2cnc(C3CN(Cc4nccs4)CCO3)c2c1 (centres undefined) | -1.41%
49 | O=C(c1cc(=O)c(OCc2ccccc2F)co1)N1CCCC1 | 1.91%
50 | COc1cc(-n2cc(CCO)cn2)ccc1NC(C)=O | -9.17%
51 | FC(F)(F)Oc1ccc(CN2CCCC(n3cncn3)C2)cc1 (centres undefined) | -10.6%
52 | CNC(=O)C(C)(C)CNC(=O)Nc1ccc(C)cn1 | -3.94%
53 | c1cnc(NCCCOC2CCOCC2)nc1 | 4.17%
54 | O=C(N1CCOCC1)N1CC[C@@](O)(c2ccccc2)[C@H]2CCCC[C@@H]21 | -1.75%
55 | CCN(CC)c1ccc(NS(=O)(=O)c2cnn(CC)c2)cn1 | 1.09%
56 | Cc1ccn(CCNC(=O)C2(C)CC(c3ccccc3)=NO2)n1 (centres undefined) | -1.48%
57 | Cc1ncccc1NC(=O)[C@@H]1CCO[C@@H]2CCN(c3ccncn3)C[C@H]21 | -6.04%
58 | Fc1ccc(CNc2ccccc2Cn2cncn2)cc1 | -7.99%
59 | CNc1nc(C2CCCN2C(C)=O)nc2c1CCN(CC1CC1)C2 (centres undefined) | -13.7%
60 | O=S(=O)(Cc1c(F)cccc1Cl)NCCCN1CCCCCC1 | -1.18%
61 | CNC(=O)C1(c2cnccn2)CCCN1C(=O)c1ncccc1C (centres undefined) | -5.43%
62 | Fc1cnc(N2CCCC3(CCN(Cc4cccs4)C3)C2)nc1 (centres undefined) | -2.04%
63 | CCc1ccc(CNC(=O)NC(C)CN2CCOCC2)s1 (centres undefined) | 6.35%
64 | COC(=O)C(c1cc(F)ccc1F)N(C)C(=O)c1csnn1 (centres undefined) | 7.84%
65 | Cn1cncc1C(=O)N1CCCC(c2ccn[nH]2)C1 (centres undefined) | -16.9%
66 | CC(NC(=O)N1CCN(c2nccs2)CC1)c1nncn1C (centres undefined) | -7.23%
67 | CC(C)(C)C(=O)NCCNc1cc(N2CCCC2)ncn1 | -8.01%
68 | CN(Cc1cn2c(n1)CN(C(=O)CC1CC1)CC2)Cc1ccco1 | -4.98%
69 | CCc1cnc(CN(C(C)=O)C2CCN(CC(=O)N3CCCC3)C2)o1 (centres undefined) | -4.28%

Row | Compound | cytotoxicity at 70.5 h
70 | O=C(N1CCCO1)[C@]12COC[C@H]1CN(Cc1nccs1)C2 | -7.21%
71 | O=C(c1cnccn1)N1CCN2C[C@H](OCC3CC3)C[C@H]2C1 | 4.98%
72 | COC(=O)c1ccc(CNC(=O)Cc2csc(C(C)=O)c2)cc1 | 4.17%
73 | c1ccc(-c2nc(SCc3nnc(C4CC4)o3)n[nH]2)nc1 | -4.88%
74 | Cc1cc(NS(=O)(=O)c2c[nH]c3ncccc23)no1 | 0.354%
75 | O=C(COCc1nc(-c2ccncc2)no1)N1CCOCC1 | -0.64%
76 | CC(=O)Nn1ccc2c(nnc3c(-c4ccccc4)cnn32)c1=O | -28.5%
77 | CNC(=O)[C@H]1C[C@@H]2CN(S(=O)(=O)c3cccc(F)c3)C[C@@H]2N1C | 1.47%
78 | CCc1ncc(CNC2CC(=O)N(CCc3cccc(Cl)c3)C2)cn1 (centres undefined) | -4.07%
79 | O=C(c1cnccn1)N1CCN(Cc2ccncc2)c2ncccc2C1 | -5.23%
80 | CCNC(=O)NC[C@H]1COCc2nc3cc(C)ccc3n21 | -3.17%
81 | Cc1nc(N2CCN(C)CC2)ncc1C(=O)N1CCN(C)CC1 | -4.76%
82 | Cc1n[nH]c(C)c1NC(=O)CN1CCCC1c1noc(C2CC2)n1 (centres undefined) | -18.5%
83 | CC(Cn1cccn1)NC(=O)N1CCN(Cc2cccnc2)CC1 (centres undefined) | -7.03%
84 | O=C(c1cccs1)N1C[C@@H]2OCCN(CC3CCCO3)[C@@H]2C1 (some centres undefined) | 1.09%
85 | O=S(=O)(NCc1cc2n(n1)CCNC2)c1ccc(OC(F)(F)F)cc1 | -16.5%
86 | COc1ccnc(N2CCN(C(=O)c3ccn(C)c(=O)c3)CC2)n1 | -1.1%
87 | Cc1cccc(NC(=O)NCCCn2nc3ccccn3c2=O)c1C | -8.44%
88 | CN(C)c1ccc(C(=O)NCC2(O)CCOCC2)cc1 | -8.78%
89 | O=C(NC1CCC1)c1c2c(N3CCCC3)ncnc2n2ccccc12 | -2.42%
90 | CC(C)c1nnc2n1CCN(C(=O)c1cccc(S(C)(=O)=O)c1)C2 | 17%
91 | CCCc1ncc(CNC2(c3ccc(Cl)cc3)CC2)cn1 | -4.1%
92 | CC(C)c1nc(C2CCCN(C(=O)c3ccc4nncn4c3)C2)no1 (centres undefined) | -5.81%

Row | Compound | cytotoxicity at 70.5 h
93 | Fc1ccc(CN2CCC(c3nccnc3-n3ccnc3)CC2)cc1 | 2.75%
94 | CCOC(=O)CNC(=O)NCc1cccn1Cc1cccc(C)c1 | -18.9%
95 | COCCNC(=O)c1sc2ccccc2c1C1CCC(CN)CC1 (centres undefined) | -1.66%
96 | CC(C)OCCS(=O)(=O)N1CCN(Cc2cccn2C)CC1 | -8.85%
97 | Cc1cc(C(F)(F)F)cc(=O)n1Cc1nc(C(C)C)no1 | -14.9%
98 | CCN(C(=O)c1ccc2nncn2c1)C(C)Cc1ccc(OC)cc1 (centres undefined) | -5.25%
99 | CSCC(=O)NC(Cc1ccc(C)cc1)c1ccccn1 (centres undefined) | 0.833%
100 | Cc1cnc(CN(C)C2CCN(Cc3cnc(C)s3)C2)o1 (centres undefined) | -8.23%
101 | O=C(Nc1nc2c(s1)CNCC2)NC1CCCC1 | 18.7%
102 | COc1cccc2ccn(CC(=O)NCC(C)C)c12 | 11.2%
103 | CC(C)Cc1cn(C2CCN(C(C)CCn3cccn3)CC2)nn1 (centres undefined) | -11.6%
104 | O=S(=O)(c1cccs1)N1CCCCC1c1ccn[nH]1 (centres undefined) | -2.26%
105 | CO[C@@H]1CC[C@H]2[C@H]1OCCN2C(=O)COc1ccc(C)cc1 | -4.98%
106 | Cc1cc(N2CCN(C(=O)Cc3c(C)nc(C)[nH]c3=O)CC2)cc(C)n1 | 18.5%
107 | CO[C@@H]1CC[C@H]2[C@H]1OCCN2C(=O)C1=CCCC1 | -20.1%
108 | CCC(=O)NC1CCN(c2cccc(CC)c2)CC1 | 38.9%
109 | N#CCSCCCN1CCCC(C(=O)N2CCCCCC2)C1 (centres undefined) | -4.07%
110 | O=S(=O)(NCC(O)c1ccoc1)c1ccc(Cl)s1 (centres undefined) | 23%
111 | CN(CCCOc1ccccc1Cl)C(=O)CN1CCNC1=O | -1.34%
112 | Cc1ccc(OC2(C(=O)O)CCN(C(=O)c3cccc(F)c3)CC2)cn1 | 2.13%
113 | NC(=O)c1csc(N2CCCC(c3nc4ccccc4[nH]3)C2)n1 (centres undefined) | -2.59%
114 | Cc1nc(C)n(CC2CCCN(CC(=O)Nc3ccncc3)C2)n1 (centres undefined) | -5.01%
